How the values were obtained:
Assay in all cases: Antimicrobial Susceptibility Test (CLSI), Test Example 2
Assay type in all cases: cell-based
Set-up in all cases: unit not given here
E. coli FSEco-054 = conditions: Table 4; strain produces ESBL
Protocol: (§1) Antimicrobial Susceptibility Test was performed by the CLSI (Clinical and Laboratory Standards Institute) methods. The agar dilution method for determining antimicrobial susceptibility was carried out using Mueller Hinton-II agar and the amount of inoculation was 10^4CFU/spot. Broth dilution tests were performed using the Mueller Hinton-II broth. All assays were run with the indicated control strains, available from the ATCC (American Type Culture Collection, Rockville, Md.).

A. baumannii FSAb-065 = conditions: Table 4; strain produces OXA-2, VIM-2
Protocol: as §1

[1] = test system: K. pneumoniae ATCC BAA-1904; conditions: Table 4; strain produces KPC-3
Protocol: as §1

A. baumannii FSAb-029 = conditions: Table 4; strain produces OXA-2, IMP-1
Protocol: as §1

P. aeruginosa FSPa-121 = conditions: Table 4; strain produces OXA-17
Protocol: as §1

A. baumannii FSAb-039 = conditions: Table 4; strain produces OXA-51
Protocol: as §1

A. baumannii FSAb-056 = conditions: Table 4; strain produces OXA-23, OXA-51
Protocol: as §1

SMILES | antimicrobial susceptibility, E. coil FSEco-054 (E. coli FSEco-054) | antimicrobial susceptibility, A. baumannii FSAb-065 (A. baumannii FSAb-065) | antimicrobial susceptibility, K. pneumoniae BAA-1904 [1] | antimicrobial susceptibility, A. baumannii FSAb-029 (A. baumannii FSAb-029) | antimicrobial susceptibility, P. aeruginosa FSPa-121 (P. aeruginosa FSPa-121) | antimicrobial susceptibility, A. baumannii FSAb-039 (A. baumannii FSAb-039) | antimicrobial susceptibility, A. baumannii FSAb-056 (A. baumannii FSAb-056)
C[C@@H](O)[C@H]1C(=O)N2C(C(=O)O)=C(CN(C)CCNC(=O)c3ccc(O)c(O)c3F)[C@H](C)[C@H]12 [Compound 2] | 2 | 2 | 16 | 2 | 2 | 4 | 2
C[C@@H](O)[C@H]1C(=O)N2C(C(=O)O)=C(CN(C)CCNC(=O)c3ccc(O)c(O)c3C(F)(F)F)[C@H](C)[C@H]12 [Compound 3] | 4 | 2 | 32 | 4 | 4 | 4 | 4
Cc1c(C(=O)NCCN(C)CC2=C(C(=O)O)N3C(=O)[C@H]([C@@H](C)O)[C@H]3[C@H]2C)ccc(O)c1O [Compound 4] | 8 | 4 | 16 | 8 | 8 | 8 | 8
C[C@@H](O)[C@H]1C(=O)N2C(C(=O)O)=C(CN(C)CCNC(=O)c3cc(O)c(O)c(F)c3)[C@H](C)[C@H]12 [Compound 7] | 2 | 2 | 16 | 2 | 2 | 4 | 2
C[C@@H](O)[C@H]1C(=O)N2C(C(=O)O)=C(CN(C)CCNC(=O)c3ccc(O)cc3)[C@H](C)[C@H]12 [Compound 10] | >32 | 16 | 8 | 16 | >32 | >32 | 16
C[C@@H](O)[C@H]1C(=O)N2C(C(=O)O)=C(CN(C)CCNC(=O)c3cccc(O)c3Cl)[C@H](C)[C@H]12 [Compound 11] | >32 | 32 | 8 | 32 | >32 | >32 | 32
C[C@@H](O)[C@H]1C(=O)N2C(C(=O)O)=C(CN(C)CCNC(=O)c3cccc(O)c3F)[C@H](C)[C@H]12 [Compound 12] | >32 | 32 | 4 | 32 | >32 | >32 | 32
C[C@@H](O)[C@H]1C(=O)N2C(C(=O)O)=C(CN(C)CCNC(=O)c3ccccc3Cl)[C@H](C)[C@H]12 [Compound 13] | >32 | 16 | 8 | 32 | >32 | >32 | 32
C[C@@H](O)[C@H]1C(=O)N2C(C(=O)O)=C(CN(C)CCNC(=O)c3ccc(Cl)cc3)[C@H](C)[C@H]12 [Compound 14] | >32 | >32 | 16 | >32 | >32 | >32 | >32
C[C@@H](O)[C@H]1C(=O)N2C(C(=O)O)=C(CN(C)CCNC(=O)c3ccc(OC(=O)C(C)(C)C)c(OC(=O)C(C)(C)C)c3Cl)[C@H](C)[C@H]12 [Compound 16] | 8 | 8 | >32 | 4 | 8 | 8 | 8
C[C@@H](O)[C@H]1C(=O)N2C(C(=O)O)=C(CN(C)CCCNC(=O)c3ccc(O)c(O)c3Cl)[C@H](C)[C@H]12 [Compound 17] | 2 | 2 | 32 | 2 | 4 | 8 | 4
C[C@@H](O)[C@H]1C(=O)N2C(C(=O)O)=C(CN(C)CC(NC(=O)c3ccc(O)c(O)c3Cl)C(N)=O)[C@H](C)[C@H]12 (some centres unmarked) [Compound 18] | 2 | 1 | 16 | 8 | 2 | 4 | 4
C[C@@H](O)[C@H]1C(=O)N2C(C(=O)O)=C(CN(C)CC(=O)NCc3ccc(O)c(O)c3Cl)[C@H](C)[C@H]12 [Compound 21] | 4 | 2 | 8 | 8 | 2 | 8 | 8
C[C@@H](O)[C@H]1C(=O)N2C(C(=O)O)=C(CN3CC[C@H](NC(=O)c4ccc(OCc5ccccc5)c(OCc5ccccc5)c4Cl)C3)[C@H](C)[C@H]12 [Compound 28] | 2 | 0.5 | >32 | 0.5 | 2 | 8 | 4
C[C@@H](O)[C@H]1C(=O)N2C(C(=O)O)=C(CN3CC[C@@H](NC(=O)c4ccc(O)c(O)c4Cl)C3)[C@H](C)[C@H]12 [Compound 29] | 2 | 1 | >32 | 1 | 2 | 8 | 4
C[C@@H](O)[C@H]1C(=O)N2C(C(=O)O)=C(CN3C[C@H](NC(=O)c4ccc(O)c(O)c4Cl)[C@@H](O)C3)[C@H](C)[C@H]12 [Compound 30] | 2 | 0.5 | 16 | 2 | 2 | 4 | 4
C[C@@H](O)[C@H]1C(=O)N2C(C(=O)O)=C(CN3C[C@@H](O)[C@H](NC(=O)c4ccc(O)c(O)c4Cl)C3)[C@H](C)[C@H]12 [Compound 31] | 2 | 0.5 | 32 | 2 | 2 | 4 | 4
C[C@@H](O)[C@H]1C(=O)N2C(C(=O)O)=C(CN3CC(NC(=O)c4ccc(O)c(O)c4F)[C@@H](O)C3)[C@H](C)[C@H]12 (some centres unmarked) [Compound 36] | 4 |  | 32 | 4 |  | 4 | 8
C[C@@H](O)[C@H]1C(=O)N2C(C(=O)[O-])=C(C[N+](C)(C)CCNC(=O)c3ccc(O)c(O)c3F)[C@H](C)[C@H]12 [Compound 41] | 4 |  | 8 | 8 |  | 16 | 32
C[C@@H](O)[C@H]1C(=O)N2C(C(=O)[O-])=C(C[N+]3(CCNC(=O)c4ccc(O)c(O)c4F)CCCC3)[C@H](C)[C@H]12 [Compound 42] | 2 |  | 16 | 4 |  | 8 | 16

— US10933051B2, “Carbapenem compounds and compositions for the treatment of bacterial infections” (FOB Synthesis, Inc., priority 2017, dated 2021)
